Measurements as given in PMC4560162, “Discovery of small molecule inhibitors of xyloglucan endotransglucosylase (XET) activity by high-throughput screening” (Phytochemistry, 2015).
pIC50: −log10 of the molar value. “And” between values parts separate entries of the source, which are not always exact repeats. Equal entries are not always repeated. Where two headings read alike, the source gives them in different places.

Tests used:
[1] = system: Zea cell-suspension cultures; experiment: Membrane function ([14C]proline uptake) in Zea culture; format: cell-based, Zea mays; settings: 4 d after xenobiotic
parsley XET activity = experiment: Radiochemical XET assay (soluble xyloglucan + [3H]XXXGol); format: biochemical; settings: for effect on XET activity, radiochemical re-screen of 206 compounds (mostly LATCA): LATCA approx. 25 μM, EDI approx. 200 μg/ml, listed in order of decreasing effectiveness; for effect on XET activity in radiochemical assays (as summarised in the discussion) / pIC50: soluble xyloglucan, laboratory light; for effect on XET activity in radiochemical assays (as summarised in the discussion): free solution; for pIC50: read-out: IC50 (concentration required for 50% inhibition of XET activity), radiochemical assay, 20 °C; for effect on XET activity, first radiochemical re-screen of EDI hits: most xenobiotics at 200 μg/ml (≈200–800 μM)
Description: The parsley enzyme concentration was held constant, and the xenobiotics were tested at 200, 160, 120, 80, 40, 20, 10 and 0 μg/ml (concentrations in the final reaction mixture). Other details were as above.
The riboflavin-free controls received the same DMSO concentration.

[2] = system: Petroselinum xyloglucan endotransglucosylase (XET) activity; experiment: Fluorescent dot-blot XET screen (cellulose-bound xyloglucan + XGO–SR on paper, in the dark); format: biochemical, parsley; settings: for effect on XET activity in dot-blot (inhibition / promotion): EDI 0.4 mg/ml, LATCA 50 μM, 2 h, dark, cellulose-bound xyloglucan
Description: For inhibitor screening, 53 new 96-well plates were set up with 50 μl of parsley enzyme extract per well, and 1 μl of DMSO-solubilised xenobiotic was added to each well, giving concentrations of 0.4 mg/ml (EDI collection, with exceptions noted in Table S2) or 50 μM (LATCA collection) and 2% v/v DMSO.
XET test-paper was prepared as before ([Fry, 1997]) and 112 × 75-mm sheets were attached to cellulose acetate overhead-projector sheets with ‘Spraymount’ adhesive. Each sheet was placed on a pre-cooled glass plate in a cold room at 4 °C.
For inhibitor screening (Fig. 2), 4 μl of a parsley enzyme/xenobiotic mixture was applied to each position on a sheet. Incubation at 20 °C for 2 h, washing, drying and photography were conducted essentially as above.

[3] = system: Rosa cell-suspension cultures; experiment: Membrane function ([14C]proline uptake) in Rosa culture; format: cell-based, Rosa ("Paul's Scarlet" rose); settings: 4 d after xenobiotic
Description: Before testing the effects of XET-inhibitors on cell expansion, we defined their non-toxic concentrations. The eight XET-inhibiting xenobiotics mentioned in §2.7 were tested for cytotoxicity in cultured Rosa and Zea cells, by simple tests of the compounds’ ability to inhibit membrane and ribosome function based on [^14C]proline uptake and incorporation. In xenobiotic-free control 4-d-old Rosa cultures, 93.3% and 94.3% of the supplied [^14C]proline was absorbed from the medium within 2 and 4 h respectively, indicating healthy membrane function. In xenobiotic-free 4-d-old Zea cultures, the corresponding figures were 93.9% and 92.5%. By 4 h, 5.5% of the total [^14C]proline supplied had been incorporated into protein by Rosa and 9.3% by Zea cells, indicating healthy ribosome function. Against these control rates, we recorded any inhibition of membrane and ribosome function by the xenobiotics (Fig. 8). Each xenobiotic was tested at two concentrations (¼ and ^1/20 of the lowest non-tolerated concentration), which had been selected on the basis of preliminary experiments with a dilution series of the xenobiotic.
Eight xenobiotics that inhibited XET activity were selected for biological testing. Mini-cultures [2 ml, 5% (v/v) SCV; transferred from a standard culture 7 d after sub-culturing] were incubated in 12-well tissue culture microplates with the lids closed loosely. Xenobiotics were added as concentrated stocks in DMSO (final DMSO concentration 2%), and incubation was continued aseptically under standard conditions of temperature, lighting and shaking. After 4 d, 1 kBq of [^14C]proline was added per mini-culture. […] The culture was brought up to 10 ml with water and the settled and packed cell volumes (SCV, PCV) were then measured ([Fry and Street, 1980]). […] After 0.5 h at 100 °C, a 100-μl aliquot of the centrifuged SDS-extract was dried onto Whatman No. 3 paper, which was then washed in 75% ethanol supplemented with 0.5% acetic acid, thus removing free [^14C]proline and its low-Mr metabolites if any; radioactivity remaining on the paper ([^14C]protein) was then assayed.

[4] = system: nine other cell-wall enzyme activities; experiment: Dot-blot assays for nine additional wall enzyme activities; format: biochemical, parsley and lucerne (alfalfa); settings: xenobiotic 200 mg/l
Description: Radiolabelled oligosaccharide ([1-^3H]Gal12-ol or [1-^3H]Xyl6-ol; 1 kBq; containing a trace of Orange G) was dried into each well of a 96-well plate. […] The mixture was incubated for 24 h (for Gal12-ol) or 48 h (for Xyl6-ol), then the 5-μl reaction mixture was dried onto each position on a piece of plain Whatman No. 1 paper in 96-well format. Visual inspection of the Orange G verified that the samples had been correctly applied to the paper. […] Thus, in this assay, radioactive spots reveal inhibition of the enzyme.

[5] = system: Rosa cell-suspension cultures; experiment: Cell expansion (SCV, PCV) in Rosa cell-suspension culture; format: cell-based, Rosa ("Paul's Scarlet" rose); settings: for concentration inhibiting growth (PCV) without membrane impairment: Rosa, 4 d incubation
Description: (§1) Cell-suspension cultures of “Paul’s Scarlet” rose [a complex hybrid; genus Rosa; isolated in October 1957 from sections of young stem material; [Nickell and Tulecke, 1959]) and maize (Zea mays L., Black Mexican Sweetcorn, donated by Dr. I. Moore, Department of Botany, University of Edinburgh) were grown under constant dim illumination (10 μmol m^−2 s^−1) on an orbital shaker at 25 °C. Rose cells were maintained as described by [Chormova et al. (2014)] and maize cells as described by [Kerr and Fry (2003)].
(§2) Eight xenobiotics that inhibited XET activity were selected for biological testing. Mini-cultures [2 ml, 5% (v/v) SCV; transferred from a standard culture 7 d after sub-culturing] were incubated in 12-well tissue culture microplates with the lids closed loosely. Xenobiotics were added as concentrated stocks in DMSO (final DMSO concentration 2%), and incubation was continued aseptically under standard conditions of temperature, lighting and shaking. After 4 d, 1 kBq of [^14C]proline was added per mini-culture. A small volume of medium (50 μl) was sampled 2 and 4 h after [^14C]proline addition and assayed for remaining extracellular ^14C. The culture was brought up to 10 ml with water and the settled and packed cell volumes (SCV, PCV) were then measured ([Fry and Street, 1980]). Most of the culture medium was then removed and the cells were finally killed by addition of 0.5 ml of 6% SDS. After 0.5 h at 100 °C, a 100-μl aliquot of the centrifuged SDS-extract was dried onto Whatman No. 3 paper, which was then washed in 75% ethanol supplemented with 0.5% acetic acid, thus removing free [^14C]proline and its low-Mr metabolites if any; radioactivity remaining on the paper ([^14C]protein) was then assayed.

[6] = system: Zea cell-suspension cultures; experiment: Cell expansion (SCV, PCV) in Zea cell-suspension culture; format: cell-based, Zea mays; settings: for concentration inhibiting growth (PCV) without membrane impairment: Zea, 4 d incubation
Description: as §1, §2

[7] = target: cyclic-AMP-dependent protein kinase, PKA; design: method as in Losiewicz et al., 1994; settings: ref Losiewicz et al., 1994; cited from earlier work

CC1=C(/C=C/C(C)=C/C=C/C(C)=C\C(=O)O)C(C)(C)CCC1 [13-cis-retinoic acid]
membrane function ([1]; at the concentrations tested): only slightly | effect on XET activity, radiochemical re-screen of 206 compounds (mostly LATCA) (parsley XET activity): inhibition | effect on XET activity in dot-blot (inhibition / promotion) [2]: did not show inhibitory effects | membrane function ([3]; higher tested concentration): impaired

COC(=O)/C(=C1/OC(=O)C(c2ccccc2)=C1O)c1ccccc1 [vulpinic acid]
effect on XET activity in radiochemical assays (as summarised in the discussion) (parsley XET activity): inhibitor | effect on XET activity in dot-blot (inhibition / promotion) [2]: did not show inhibitory effects | number of the nine other wall enzyme activities inhibited [4]: two | membrane function ([3]; at the concentrations tested): impaired

O=C(O[C@@H]1Cc2c(O)cc(O)cc2O[C@@H]1c1cc(O)c(O)c(O)c1)c1cc(O)c(O)c(O)c1 [epigallocatechin gallate, (−)-epigallocatechin gallate]
membrane function ([1]; higher tested concentration): impaired | pIC50 (parsley XET activity; 2 h): ~3.40 | effect on XET activity in radiochemical assays (as summarised in the discussion) (parsley XET activity): inhibited | concentration inhibiting growth (PCV) without membrane impairment [5]: 870 µM | effect on XET activity in dot-blot (inhibition / promotion) [2]: promoted | effect on XET activity in dot-blot (inhibition / promotion) ([2]; listed as (−)-epigallocatechin gallate): coagulating promoter | coagulation ('type c' effect) in dot-blot ([2]; EDI collection, 0.4 mg/ml in enzyme mixture): coagulation | number of the nine other wall enzyme activities inhibited [4]: eight | concentration inhibiting growth (PCV) without membrane impairment [6]: 40 µM

Cc1cc2nc3c(=O)[nH]c(=O)nc-3n(C[C@H](O)[C@H](O)[C@H](O)CO)c2cc1C [riboflavin]
membrane function ([1]; at the concentrations tested): impaired | [3H]Xyloglucan formed, Low light (parsley XET activity; 0.5 mM riboflavin, 0.2 lux, 2 h, control without riboflavin 8861 ± 105, mean ± SE of 4): 5390 ± 130 cpm | [3H]Xyloglucan formed, High light (parsley XET activity; 0.5 mM riboflavin, 1100 lux, 2 h, control without riboflavin 8942 ± 349, mean ± SE of 4): 807 ± 63 cpm | effect on XET activity, radiochemical re-screen of 206 compounds (mostly LATCA) (parsley XET activity): inhibition | pIC50 (parsley XET activity; 2 h): 4.54 and ~4.52 | number of the nine other wall enzyme activities inhibited [4]: eight

erythrosin B
membrane function ([1]; at the concentrations tested): impaired | effect on XET activity, radiochemical re-screen of 206 compounds (mostly LATCA) (parsley XET activity): inhibition | effect on XET activity, first radiochemical re-screen of EDI hits (parsley XET activity): inhibitory | pIC50 (parsley XET activity; 2 h): 4.44 | pIC50 (parsley XET activity; 2 h, listed as erythrosin B): ~4.52 | concentration that inhibited cell expansion (abstract) ([5]; Rosa cell-suspension culture): 1 µM | concentration inhibiting growth (PCV) without membrane impairment [5]: 1.1 µM | concentration that inhibited cell expansion / culture growth (abstract) ([6]; Zea cell-suspension culture): 1 µM

CCOc1ccc(Nc2ccc(/C(=C3C=C/C(=[N+](/CC)Cc4cccc(S(=O)(=O)[O-])c4)C=C/3C)c3ccc(N(CC)Cc4cccc(S(=O)(=O)O)c4)cc3C)cc2)cc1 [brilliant blue G]
membrane function ([1]; higher tested concentration): impaired | effect on XET activity, first radiochemical re-screen of EDI hits (parsley XET activity): inhibitory | number of the nine other wall enzyme activities inhibited [4]: three | membrane function ([3]; higher tested concentration): impaired | concentration inhibiting growth (PCV) without membrane impairment [6]: 100 µM

CN1CC[C@H](c2c(O)cc(O)c3c(=O)cc(-c4ccccc4Cl)oc23)[C@H](O)C1 [flavopiridol]
pIC50 [7]: 3.84
